The values below come from ChEMBL document CHEMBL1909046, “DrugMatrix in vitro pharmacology data”.

Sequence of Mu-type opioid receptor (P35372 whole entry): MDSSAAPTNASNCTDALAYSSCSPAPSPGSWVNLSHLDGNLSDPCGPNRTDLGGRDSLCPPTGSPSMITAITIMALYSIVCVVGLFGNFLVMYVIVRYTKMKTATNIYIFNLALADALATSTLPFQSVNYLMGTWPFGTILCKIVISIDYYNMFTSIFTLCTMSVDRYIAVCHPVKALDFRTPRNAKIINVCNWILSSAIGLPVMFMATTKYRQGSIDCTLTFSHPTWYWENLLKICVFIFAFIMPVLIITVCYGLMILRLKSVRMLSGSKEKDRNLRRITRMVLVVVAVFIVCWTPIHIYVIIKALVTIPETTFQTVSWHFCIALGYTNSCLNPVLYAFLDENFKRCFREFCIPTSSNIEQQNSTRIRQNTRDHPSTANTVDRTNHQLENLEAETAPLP

Tested on in the first test: not listed separately
Nature of the test: DRUGMATRIX: Sigma2 radioligand binding (ligand: [3H] Ifenprodil). The note with it: Not Active = under 50% inhibition at 10 µM. The class given is cell membranes, Rattus norvegicus, Wistar, Brain, Membrane.
In the case of `Cc1c(-c2ccccc2)oc2c(C(=O)OCCN3CCCCC3)cccc2c1=O` [FLAVOXATE], the IC50 result is “Not Active” and the Ki entry is listed as “Not Active”.

As for `O=c1[nH]cc(F)c(=O)[nH]1` [FLUOROURACIL], the IC50 result is “Not Active” and the Ki result is given as “Not Active”.

The next test concerns the target T1, Cysteinyl leukotriene receptor 1 (Homo sapiens, UniProt Q9Y271). Note: in other assays of this panel Not Active means under 50% inhibition at 10 µM.
T1 sequence (Q9Y271 whole entry): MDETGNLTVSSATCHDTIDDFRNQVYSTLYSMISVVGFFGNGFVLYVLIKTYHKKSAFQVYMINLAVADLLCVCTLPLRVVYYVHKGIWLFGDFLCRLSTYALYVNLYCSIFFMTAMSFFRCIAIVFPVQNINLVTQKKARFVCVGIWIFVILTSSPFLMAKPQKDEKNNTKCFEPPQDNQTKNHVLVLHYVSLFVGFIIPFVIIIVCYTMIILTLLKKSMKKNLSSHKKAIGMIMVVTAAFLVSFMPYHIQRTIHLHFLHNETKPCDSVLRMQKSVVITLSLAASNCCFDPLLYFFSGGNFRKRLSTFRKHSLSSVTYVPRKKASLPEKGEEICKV
Test: not given
The test is classed as cell membranes, CHO-K1, Membrane. The note with it: cho-k1.
As to `Cc1c(-c2ccccc2)oc2c(C(=O)OCCN3CCCCC3)cccc2c1=O` [FLAVOXATE], the IC50 entry is “Not Active”.

Consider `O=c1[nH]cc(F)c(=O)[nH]1` [FLUOROURACIL], for which the IC50 result is recorded as “Not Active”.

Another test has as its target T2, 5-hydroxytryptamine receptor 2C (Homo sapiens, UniProt P28335).
T2 sequence (P28335 whole entry): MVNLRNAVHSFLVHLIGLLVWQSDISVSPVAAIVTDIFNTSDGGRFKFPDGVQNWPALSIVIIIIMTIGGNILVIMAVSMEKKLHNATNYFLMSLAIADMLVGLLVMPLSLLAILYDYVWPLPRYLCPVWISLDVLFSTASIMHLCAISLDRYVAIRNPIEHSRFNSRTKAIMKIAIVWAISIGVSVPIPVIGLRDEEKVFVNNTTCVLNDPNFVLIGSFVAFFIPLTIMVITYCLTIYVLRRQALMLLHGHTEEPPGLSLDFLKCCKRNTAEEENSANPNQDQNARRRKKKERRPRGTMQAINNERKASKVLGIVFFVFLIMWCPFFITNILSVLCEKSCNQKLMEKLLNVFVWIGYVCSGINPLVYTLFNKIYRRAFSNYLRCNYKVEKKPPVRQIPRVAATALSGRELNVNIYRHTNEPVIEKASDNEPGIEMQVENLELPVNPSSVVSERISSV
Nature of the test: DRUGMATRIX: Serotonin (5-Hydroxytryptamine) 5-HT2C radioligand binding (ligand: [3H] Mesulergine). The test is classed as cell membranes, CHO-K1, Membrane. The note with it: cho-k1; Not Active = under 50% inhibition at 10 µM.
Take `Cc1c(-c2ccccc2)oc2c(C(=O)OCCN3CCCCC3)cccc2c1=O` [FLAVOXATE]: the IC50 entry was “Not Active”.

Turning to `O=c1[nH]cc(F)c(=O)[nH]1` [FLUOROURACIL], the IC50 result is on record as “Not Active”.

In a further test the target is 5-hydroxytryptamine receptor 1B (Rattus norvegicus, UniProt P28564). Note: in other assays of this panel Not Active means under 50% inhibition at 10 µM.
Sequence of 5-hydroxytryptamine receptor 1B (P28564 whole entry): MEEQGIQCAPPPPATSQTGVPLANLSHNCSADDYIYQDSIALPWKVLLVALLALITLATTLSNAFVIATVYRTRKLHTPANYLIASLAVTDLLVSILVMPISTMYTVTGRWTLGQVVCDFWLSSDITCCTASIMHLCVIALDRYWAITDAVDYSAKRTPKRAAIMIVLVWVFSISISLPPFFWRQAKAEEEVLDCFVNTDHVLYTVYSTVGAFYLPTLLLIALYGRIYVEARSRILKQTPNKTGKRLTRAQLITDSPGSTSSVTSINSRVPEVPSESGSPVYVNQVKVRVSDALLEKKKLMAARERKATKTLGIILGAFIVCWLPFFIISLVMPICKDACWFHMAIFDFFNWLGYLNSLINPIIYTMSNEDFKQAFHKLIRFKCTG
Test: not given
The class given is cell membranes, Wistar, Cerebral cortex, Membrane.
Conditions: not given
For `Cc1c(-c2ccccc2)oc2c(C(=O)OCCN3CCCCC3)cccc2c1=O` [FLAVOXATE], the IC50 entry is “Not Active”.

`O=c1[nH]cc(F)c(=O)[nH]1` [FLUOROURACIL]: the IC50 result is on record as “Not Active”.

The next test deals with Melanocortin receptor 4 (Homo sapiens, UniProt P32245).
Sequence of Melanocortin receptor 4 (P32245 whole entry): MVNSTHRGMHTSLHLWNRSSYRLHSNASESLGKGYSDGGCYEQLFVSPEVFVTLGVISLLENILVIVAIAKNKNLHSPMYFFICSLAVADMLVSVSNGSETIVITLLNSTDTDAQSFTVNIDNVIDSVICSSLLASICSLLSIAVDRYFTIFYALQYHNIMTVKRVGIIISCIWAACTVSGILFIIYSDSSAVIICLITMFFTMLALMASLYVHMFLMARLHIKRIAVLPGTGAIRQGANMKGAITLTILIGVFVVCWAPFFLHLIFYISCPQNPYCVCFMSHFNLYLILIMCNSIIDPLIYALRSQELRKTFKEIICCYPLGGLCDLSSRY
Test: not given
The class given is cell membranes, Membrane. Conditions: hek293.
Take `Cc1c(-c2ccccc2)oc2c(C(=O)OCCN3CCCCC3)cccc2c1=O` [FLAVOXATE]: the IC50 result is “Not Active”.

In the case of `O=c1[nH]cc(F)c(=O)[nH]1` [FLUOROURACIL], the IC50 result is “Not Active”.

For a further test, the target named is Epidermal growth factor receptor (Homo sapiens, UniProt P00533). The test is described as follows: DRUGMATRIX: Protein Tyrosine Kinase, EGF Receptor enzyme inhibition (substrate: Poly(Glu:Tyr)). The class given is cell-based, Insect cells. The note with it: insect cells; Not Active = under 50% inhibition at 10 µM.
Sequence of Epidermal growth factor receptor (P00533 whole entry): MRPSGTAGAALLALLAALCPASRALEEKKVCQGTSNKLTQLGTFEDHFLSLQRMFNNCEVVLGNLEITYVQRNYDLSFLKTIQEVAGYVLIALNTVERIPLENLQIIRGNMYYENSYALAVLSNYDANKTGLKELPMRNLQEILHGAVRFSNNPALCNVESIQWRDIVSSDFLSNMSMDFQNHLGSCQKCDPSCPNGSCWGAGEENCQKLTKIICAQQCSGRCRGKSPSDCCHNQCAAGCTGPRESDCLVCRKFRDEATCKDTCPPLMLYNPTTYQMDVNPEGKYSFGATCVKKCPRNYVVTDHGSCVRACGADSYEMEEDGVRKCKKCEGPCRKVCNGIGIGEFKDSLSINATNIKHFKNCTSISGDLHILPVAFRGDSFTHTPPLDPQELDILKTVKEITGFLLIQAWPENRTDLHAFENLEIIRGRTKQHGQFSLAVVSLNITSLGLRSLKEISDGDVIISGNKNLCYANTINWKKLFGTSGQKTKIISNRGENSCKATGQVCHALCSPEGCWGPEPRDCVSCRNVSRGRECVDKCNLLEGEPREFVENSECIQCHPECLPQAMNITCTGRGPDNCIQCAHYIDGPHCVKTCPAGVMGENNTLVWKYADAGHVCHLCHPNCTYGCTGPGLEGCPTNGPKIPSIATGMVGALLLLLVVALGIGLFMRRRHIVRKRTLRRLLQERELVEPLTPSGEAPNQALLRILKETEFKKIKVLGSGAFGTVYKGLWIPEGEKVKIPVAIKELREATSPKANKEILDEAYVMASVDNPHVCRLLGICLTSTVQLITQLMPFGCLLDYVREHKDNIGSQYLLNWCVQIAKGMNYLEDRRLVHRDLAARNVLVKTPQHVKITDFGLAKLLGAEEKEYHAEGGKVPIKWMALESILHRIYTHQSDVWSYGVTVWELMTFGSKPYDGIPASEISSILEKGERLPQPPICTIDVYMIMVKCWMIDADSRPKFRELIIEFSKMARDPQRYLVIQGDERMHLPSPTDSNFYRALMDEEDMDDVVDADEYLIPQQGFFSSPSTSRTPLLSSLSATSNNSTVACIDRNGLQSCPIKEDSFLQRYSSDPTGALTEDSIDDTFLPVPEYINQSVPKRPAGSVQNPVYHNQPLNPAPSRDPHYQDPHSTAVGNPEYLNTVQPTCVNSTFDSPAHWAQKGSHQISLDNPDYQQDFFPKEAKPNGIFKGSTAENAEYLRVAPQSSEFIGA
With `Cc1c(-c2ccccc2)oc2c(C(=O)OCCN3CCCCC3)cccc2c1=O` [FLAVOXATE], the IC50 entry is on record as “Not Active”.

For the molecule `O=c1[nH]cc(F)c(=O)[nH]1` [FLUOROURACIL], the IC50 result was “Not Active”.

Tested on in another test: not listed separately
Nature of the test: DRUGMATRIX: beta-Lactamase enzyme inhibition (substrate: Nitrocefin). Set-up: species or system Bacillus cereus. Conditions: Not Active = under 50% inhibition at 10 µM.
For `Cc1c(-c2ccccc2)oc2c(C(=O)OCCN3CCCCC3)cccc2c1=O` [FLAVOXATE], the IC50 result is “Not Active” and the Ki result is reported as “Not Active”.

Consider `O=c1[nH]cc(F)c(=O)[nH]1` [FLUOROURACIL], for which the IC50 entry is reported as “Not Active” and the Ki entry is “Not Active”.

Tested on in the next test: not listed separately
The test is described as follows: DRUGMATRIX: Leukotriene, BLT (LTB4) radioligand binding (ligand: [3H]LTB4). The test is classed as cell membranes, Membrane. The note with it: u-937; Not Active = under 50% inhibition at 10 µM.
On to `Cc1c(-c2ccccc2)oc2c(C(=O)OCCN3CCCCC3)cccc2c1=O` [FLAVOXATE], for which the IC50 entry was “Not Active” and the Ki entry is recorded as “Not Active”.

Turning to `O=c1[nH]cc(F)c(=O)[nH]1` [FLUOROURACIL], the IC50 result was “Not Active” and the Ki result is listed as “Not Active”.

The target of another test is Tyrosine-protein kinase Fyn (Homo sapiens, UniProt P06241). Nature of the test: biochemical. Conditions: insect cells. The test is classed as cell-based, Insect cells.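 Note: enzymatic inhibition of Fyn kinase activity measured with Poly(Glu:Tyr) as the phosphorylation substrate; in other assays of this panel Not Active means under 50% inhibition at 10 µM.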
Sequence of Tyrosine-protein kinase Fyn (P06241 whole entry): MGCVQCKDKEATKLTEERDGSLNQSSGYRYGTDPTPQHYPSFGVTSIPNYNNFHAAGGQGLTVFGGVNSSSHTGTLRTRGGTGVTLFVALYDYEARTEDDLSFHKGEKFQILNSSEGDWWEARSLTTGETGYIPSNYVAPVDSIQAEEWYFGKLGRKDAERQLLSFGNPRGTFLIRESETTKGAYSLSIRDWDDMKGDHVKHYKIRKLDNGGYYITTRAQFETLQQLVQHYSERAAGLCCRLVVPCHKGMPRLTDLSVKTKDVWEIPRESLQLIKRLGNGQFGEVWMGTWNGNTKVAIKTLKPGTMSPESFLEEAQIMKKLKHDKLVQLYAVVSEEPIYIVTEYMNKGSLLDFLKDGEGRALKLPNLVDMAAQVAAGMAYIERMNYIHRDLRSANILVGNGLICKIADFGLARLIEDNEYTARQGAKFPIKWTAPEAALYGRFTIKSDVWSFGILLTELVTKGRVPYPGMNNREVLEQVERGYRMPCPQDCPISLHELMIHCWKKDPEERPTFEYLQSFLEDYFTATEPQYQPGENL
In the case of `Cc1c(-c2ccccc2)oc2c(C(=O)OCCN3CCCCC3)cccc2c1=O` [FLAVOXATE], the IC50 entry was “Not Active”.

As to `O=c1[nH]cc(F)c(=O)[nH]1` [FLUOROURACIL], the IC50 result is recorded as “Not Active”.

The target of a further test is T3, Cathepsin G (Homo sapiens, UniProt P08311).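 Note: inhibition of Cathepsin G enzyme activity, tested on an AMC-conjugated peptide substrate; in other assays of this panel Not Active means under 50% inhibition at 10 µM.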
T3 sequence (P08311 whole entry): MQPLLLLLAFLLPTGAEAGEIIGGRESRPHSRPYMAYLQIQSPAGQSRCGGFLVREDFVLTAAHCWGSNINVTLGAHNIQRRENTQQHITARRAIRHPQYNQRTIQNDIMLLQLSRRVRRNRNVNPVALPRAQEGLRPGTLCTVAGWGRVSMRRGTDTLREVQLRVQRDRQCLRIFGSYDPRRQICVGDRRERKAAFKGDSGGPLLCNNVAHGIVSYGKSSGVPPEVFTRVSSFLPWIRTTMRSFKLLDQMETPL
Test: not given
The test is classed as tissue-based. The note with it: neutrophil.
As for `Cc1c(-c2ccccc2)oc2c(C(=O)OCCN3CCCCC3)cccc2c1=O` [FLAVOXATE], the IC50 entry is recorded as “Not Active”.

In the case of `O=c1[nH]cc(F)c(=O)[nH]1` [FLUOROURACIL], the IC50 entry is given as “Not Active”.

The target in the next test is T4, D(4) dopamine receptor (Homo sapiens, UniProt P21917).
T4 sequence (P21917 whole entry): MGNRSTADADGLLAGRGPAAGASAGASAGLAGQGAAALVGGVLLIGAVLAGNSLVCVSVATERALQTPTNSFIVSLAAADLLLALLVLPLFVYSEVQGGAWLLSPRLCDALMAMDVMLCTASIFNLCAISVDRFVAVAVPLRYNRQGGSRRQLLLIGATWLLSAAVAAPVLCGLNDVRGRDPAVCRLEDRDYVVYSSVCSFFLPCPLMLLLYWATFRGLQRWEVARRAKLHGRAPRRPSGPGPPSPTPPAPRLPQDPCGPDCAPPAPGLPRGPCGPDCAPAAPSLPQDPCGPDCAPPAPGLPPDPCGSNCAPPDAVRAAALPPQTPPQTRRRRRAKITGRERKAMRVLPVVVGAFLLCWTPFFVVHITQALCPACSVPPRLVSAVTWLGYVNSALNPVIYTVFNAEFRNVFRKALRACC
Nature of the test: DRUGMATRIX: Dopamine D4.2 radioligand binding (ligand: [3H] Spiperone). The class given is cell membranes, CHO-K1, Membrane. Conditions: cho-k1; Not Active = under 50% inhibition at 10 µM.
As to `Cc1c(-c2ccccc2)oc2c(C(=O)OCCN3CCCCC3)cccc2c1=O` [FLAVOXATE], the IC50 entry is reported as “Not Active”.

Consider `O=c1[nH]cc(F)c(=O)[nH]1` [FLUOROURACIL], for which the IC50 result is listed as “Not Active”.

A further test deals with Melanocortin receptor 5 (Homo sapiens, UniProt P33032).
Sequence of Melanocortin receptor 5 (P33032 whole entry): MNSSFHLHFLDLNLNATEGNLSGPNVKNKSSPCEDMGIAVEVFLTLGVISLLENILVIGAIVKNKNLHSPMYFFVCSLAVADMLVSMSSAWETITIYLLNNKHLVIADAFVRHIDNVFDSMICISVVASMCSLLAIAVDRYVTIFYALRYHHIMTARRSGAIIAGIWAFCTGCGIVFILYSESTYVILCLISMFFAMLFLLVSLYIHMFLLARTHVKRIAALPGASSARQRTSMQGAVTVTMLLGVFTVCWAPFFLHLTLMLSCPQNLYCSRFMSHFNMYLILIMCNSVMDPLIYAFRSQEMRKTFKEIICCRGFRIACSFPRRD
Test: not given
The class given is cell membranes, HEK293, Membrane. The note with it: hek293.
For `Cc1c(-c2ccccc2)oc2c(C(=O)OCCN3CCCCC3)cccc2c1=O` [FLAVOXATE], the IC50 result is recorded as “Not Active”.

On to `O=c1[nH]cc(F)c(=O)[nH]1` [FLUOROURACIL], for which the IC50 result is recorded as “Not Active”.

Tested on in the next test: not listed separately
Nature of the test: DRUGMATRIX: Purinergic P2X radioligand binding (ligand: [3H] alpha, beta-Methylene-ATP). The class given is cell membranes, Oryctolagus cuniculus, New Zealand albino, Urinary bladder, Membrane. Conditions: Not Active = under 50% inhibition at 10 µM.
Turning to `Cc1c(-c2ccccc2)oc2c(C(=O)OCCN3CCCCC3)cccc2c1=O` [FLAVOXATE], the IC50 result was “Not Active” and the Ki entry is reported as “Not Active”.

On to `O=c1[nH]cc(F)c(=O)[nH]1` [FLUOROURACIL], for which the IC50 entry is “Not Active” and the Ki entry is recorded as “Not Active”.

A further test has as its target T5, Caspase-1 (Homo sapiens, UniProt P29466).
T5 sequence (P29466 whole entry): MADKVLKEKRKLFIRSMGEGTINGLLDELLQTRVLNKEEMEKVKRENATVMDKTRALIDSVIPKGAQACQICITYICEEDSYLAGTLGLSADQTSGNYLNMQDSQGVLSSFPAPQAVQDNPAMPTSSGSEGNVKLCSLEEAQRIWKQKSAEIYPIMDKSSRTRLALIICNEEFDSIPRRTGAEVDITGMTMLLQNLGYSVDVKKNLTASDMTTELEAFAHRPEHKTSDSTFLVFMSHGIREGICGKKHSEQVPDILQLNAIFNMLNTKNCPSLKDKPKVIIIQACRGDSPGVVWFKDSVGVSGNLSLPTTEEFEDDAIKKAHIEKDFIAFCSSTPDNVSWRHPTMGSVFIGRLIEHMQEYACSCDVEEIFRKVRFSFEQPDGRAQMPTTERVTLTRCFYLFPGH
Test: not given
Set-up: species or system Escherichia coli.
Conditions: not given
With `Cc1c(-c2ccccc2)oc2c(C(=O)OCCN3CCCCC3)cccc2c1=O` [FLAVOXATE], the IC50 result is reported as “Not Active”.

Turning to `O=c1[nH]cc(F)c(=O)[nH]1` [FLUOROURACIL], the IC50 result is “Not Active”.

Another test has as its target Mu-type opioid receptor (Homo sapiens, UniProt P35372). Nature of the test: DRUGMATRIX: Opiate mu (OP3, MOP) radioligand binding (ligand: [3H] Diprenorphine). The note with it: cho-k1; Not Active = under 50% inhibition at 10 µM. The test is classed as cell membranes, CHO-K1, Membrane.
For `Cc1c(-c2ccccc2)oc2c(C(=O)OCCN3CCCCC3)cccc2c1=O` [FLAVOXATE], the IC50 result was “Not Active”.

Take `O=c1[nH]cc(F)c(=O)[nH]1` [FLUOROURACIL]: the IC50 entry is recorded as “Not Active”.

For the next test, the target named is Beta-1 adrenergic receptor (Homo sapiens, UniProt P08588). Nature of the test: DRUGMATRIX: Adrenergic beta1 radioligand binding (ligand: [125I] Cyanopindolol). Conditions: cho-k1; Not Active = under 50% inhibition at 10 µM. The class given is cell membranes, CHO-K1, Membrane.
Sequence of Beta-1 adrenergic receptor (P08588 whole entry): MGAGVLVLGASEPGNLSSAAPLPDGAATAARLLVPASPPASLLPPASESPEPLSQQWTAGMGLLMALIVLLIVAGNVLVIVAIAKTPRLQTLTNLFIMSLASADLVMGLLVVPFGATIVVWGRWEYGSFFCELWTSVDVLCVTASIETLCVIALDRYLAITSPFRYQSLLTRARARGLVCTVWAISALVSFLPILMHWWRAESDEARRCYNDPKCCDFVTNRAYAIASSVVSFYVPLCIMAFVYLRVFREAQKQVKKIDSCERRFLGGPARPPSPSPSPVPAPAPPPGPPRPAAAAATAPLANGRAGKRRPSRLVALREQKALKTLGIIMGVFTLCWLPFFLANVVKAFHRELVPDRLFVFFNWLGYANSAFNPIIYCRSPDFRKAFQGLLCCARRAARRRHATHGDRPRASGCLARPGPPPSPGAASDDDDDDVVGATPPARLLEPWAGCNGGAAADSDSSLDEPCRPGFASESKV
For `Cc1c(-c2ccccc2)oc2c(C(=O)OCCN3CCCCC3)cccc2c1=O` [FLAVOXATE], the IC50 entry is “Not Active”.

For `O=c1[nH]cc(F)c(=O)[nH]1` [FLUOROURACIL], the IC50 result is listed as “Not Active”.
